Source: PubChem BioAssay (NCI)
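Interpolation was linear, between the two tested concentrations surrounding the appropriate level; five concentrations were tested over 48 hours in 96-well plates. GI50 = concentration required for 50% inhibition of growth. The concentration for full growth arrest is given as TGI.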

Assays:
Experiment in all cases: NCI-60 cell line screen, 48 h
HCT-15 colon = system: HCT-15 colon
NCI-H522 lung = system: NCI-H522 lung
SR leukemia = system: SR leukemia
A549 NSCLC = system: A549 NSCLC
HS 578T breast = system: HS 578T breast
SN12C renal = system: SN12C renal
UACC-62 melanoma = system: UACC-62 melanoma
SW-620 colon = system: SW-620 colon
CCRF-CEM leukemia = system: CCRF-CEM leukemia
NCI-H226 lung = system: NCI-H226 lung
SF-539 CNS = system: SF-539 CNS
MDA-MB-468 breast = system: MDA-MB-468 breast
SK-OV-3 ovarian = system: SK-OV-3 ovarian
OVCAR-4 ovarian = system: OVCAR-4 ovarian
MDA-MB-231 breast = system: MDA-MB-231 breast
UO-31 renal = system: UO-31 renal
COLO 205 colon = system: COLO 205 colon
HCT-116 colon = system: HCT-116 colon
KM12 colon = system: KM12 colon
NCI/ADR-RES ovarian = system: NCI/ADR-RES ovarian
NCI-H23 lung = system: NCI-H23 lung
OVCAR-5 ovarian = system: OVCAR-5 ovarian
K-562 leukemia = system: K-562 leukemia
HL-60(TB) leukemia = system: HL-60(TB) leukemia
UACC-257 melanoma = system: UACC-257 melanoma
NCI-H460 lung = system: NCI-H460 lung
CAKI-1 renal = system: CAKI-1 renal
MCF7 breast = system: MCF7 breast
HCC-2998 colon = system: HCC-2998 colon
OVCAR-8 ovarian = system: OVCAR-8 ovarian
MOLT-4 leukemia = system: MOLT-4 leukemia
TK-10 renal = system: TK-10 renal
MALME-3M melanoma = system: MALME-3M melanoma
SK-MEL-5 melanoma = system: SK-MEL-5 melanoma
SK-MEL-2 melanoma = system: SK-MEL-2 melanoma
SNB-75 CNS = system: SNB-75 CNS
T-47D breast = system: T-47D breast
SF-268 CNS = system: SF-268 CNS
HOP-62 NSCLC = system: HOP-62 NSCLC
LOX IMVI melanoma = system: LOX IMVI melanoma
U251 CNS = system: U251 CNS
OVCAR-3 ovarian = system: OVCAR-3 ovarian
786-0 renal = system: 786-0 renal
A498 renal = system: A498 renal
MDA-MB-435 = system: MDA-MB-435
SK-MEL-28 melanoma = system: SK-MEL-28 melanoma
RPMI-8226 leukemia = system: RPMI-8226 leukemia
IGROV1 ovarian = system: IGROV1 ovarian
BT-549 breast = system: BT-549 breast
PC-3 prostate = system: PC-3 prostate
DU-145 prostate = system: DU-145 prostate
SF-295 CNS = system: SF-295 CNS
ACHN renal = system: ACHN renal
RXF 393 renal = system: RXF 393 renal
HT29 colon = system: HT29 colon
M14 melanoma = system: M14 melanoma
HOP-92 NSCLC = system: HOP-92 NSCLC
SNB-19 CNS = system: SNB-19 CNS
EKVX NSCLC = system: EKVX NSCLC

Q: What does the source list for `CC(=C(c1ccc(OCCN2CCCCCC2)cc1)c1ccc(OCCN2CCCCCC2)cc1)c1ccc(Cl)cc1`?
A: GI50 (HCT-15 colon): 1.48 µM; TGI (HCT-15 colon): 5.7 µM; GI50 (NCI-H522 lung): 4.84 µM; TGI (NCI-H522 lung): 10.1 µM; GI50 (SR leukemia): 0.963 µM; TGI (SR leukemia): 3.33 µM; GI50 (A549 NSCLC): 4.64 µM; TGI (A549 NSCLC): 12.1 µM; GI50 (HS 578T breast): 5.25 µM; TGI (HS 578T breast): 13.3 µM; GI50 (SN12C renal): 5.38 µM; TGI (SN12C renal): 10.9 µM; GI50 (UACC-62 melanoma): 1.09 µM; TGI (UACC-62 melanoma): 3.57 µM; GI50 (SW-620 colon): 0.757 µM; TGI (SW-620 colon): 1.75 µM; GI50 (CCRF-CEM leukemia): 1.11 µM; TGI (CCRF-CEM leukemia): 3.88 µM; GI50 (NCI-H226 lung): 5.96 µM; TGI (NCI-H226 lung): 12.6 µM; GI50 (SF-539 CNS): 4.54 µM; TGI (SF-539 CNS): 9.49 µM; GI50 (MDA-MB-468 breast): 1.3 µM; TGI (MDA-MB-468 breast): 6.08 µM; GI50 (SK-OV-3 ovarian): 6.46 µM; TGI (SK-OV-3 ovarian): 12.1 µM; GI50 (OVCAR-4 ovarian): 5.76 µM; TGI (OVCAR-4 ovarian): 11.7 µM; GI50 (MDA-MB-231 breast): 4.19 µM; TGI (MDA-MB-231 breast): 8.99 µM; GI50 (UO-31 renal): 4.66 µM; TGI (UO-31 renal): 9.6 µM; GI50 (COLO 205 colon): 0.813 µM; TGI (COLO 205 colon): 1.62 µM; GI50 (HCT-116 colon): 1.49 µM; TGI (HCT-116 colon): 6.22 µM; GI50 (KM12 colon): 4.56 µM; TGI (KM12 colon): 10.1 µM; GI50 (NCI/ADR-RES ovarian): 5.82 µM; TGI (NCI/ADR-RES ovarian): 11.6 µM; GI50 (NCI-H23 lung): 5.58 µM; TGI (NCI-H23 lung): 11.1 µM; GI50 (OVCAR-5 ovarian): 5 µM; TGI (OVCAR-5 ovarian): 10.1 µM; GI50 (K-562 leukemia): 0.908 µM; TGI (K-562 leukemia): 40.7 µM; GI50 (HL-60(TB) leukemia): 1.32 µM; TGI (HL-60(TB) leukemia): 9.39 µM; GI50 (UACC-257 melanoma): 1.44 µM; TGI (UACC-257 melanoma): 5.62 µM; GI50 (NCI-H460 lung): 1.37 µM; TGI (NCI-H460 lung): 5.14 µM; GI50 (CAKI-1 renal): 4.69 µM; TGI (CAKI-1 renal): 9.75 µM; GI50 (MCF7 breast): 0.654 µM; TGI (MCF7 breast): 1.77 µM; GI50 (HCC-2998 colon): 1.05 µM; TGI (HCC-2998 colon): 3.86 µM; GI50 (OVCAR-8 ovarian): 7.95 µM; TGI (OVCAR-8 ovarian): 18.5 µM; GI50 (MOLT-4 leukemia): 1.08 µM; TGI (MOLT-4 leukemia): 3.33 µM; GI50 (TK-10 renal): 6.19 µM; TGI (TK-10 renal): 11.7 µM; GI50 (MALME-3M melanoma): 0.745 µM; TGI (MALME-3M melanoma): 1.66 µM; GI50 (SK-MEL-5 melanoma): 2.84 µM; TGI (SK-MEL-5 melanoma): 8.15 µM; GI50 (SK-MEL-2 melanoma): 6.88 µM; TGI (SK-MEL-2 melanoma): 12.6 µM; GI50 (SNB-75 CNS): 4.78 µM; TGI (SNB-75 CNS): 9.96 µM; GI50 (T-47D breast): 2.89 µM; TGI (T-47D breast): 9.27 µM; GI50 (SF-268 CNS): 5.44 µM; TGI (SF-268 CNS): 11.4 µM; GI50 (HOP-62 NSCLC): 5.77 µM; TGI (HOP-62 NSCLC): 11.6 µM; GI50 (LOX IMVI melanoma): 0.776 µM; TGI (LOX IMVI melanoma): 1.61 µM; GI50 (U251 CNS): 5.31 µM; TGI (U251 CNS): 11.3 µM; GI50 (OVCAR-3 ovarian): 2.83 µM; TGI (OVCAR-3 ovarian): 8.44 µM; GI50 (786-0 renal): 3.62 µM; TGI (786-0 renal): 10.5 µM; GI50 (A498 renal): 5.47 µM; TGI (A498 renal): 11 µM; GI50 (MDA-MB-435): 0.807 µM; TGI (MDA-MB-435): 1.9 µM; GI50 (SK-MEL-28 melanoma): 0.682 µM; TGI (SK-MEL-28 melanoma): 1.29 µM; GI50 (RPMI-8226 leukemia): 1.29 µM; TGI (RPMI-8226 leukemia): 4.7 µM; GI50 (IGROV1 ovarian): 5.09 µM; TGI (IGROV1 ovarian): 10.3 µM; GI50 (BT-549 breast): 7.09 µM; TGI (BT-549 breast): 13.3 µM; GI50 (PC-3 prostate): 4.53 µM; TGI (PC-3 prostate): 10 µM; GI50 (DU-145 prostate): 5.19 µM; TGI (DU-145 prostate): 10.4 µM; GI50 (SF-295 CNS): 1.97 µM; TGI (SF-295 CNS): 7.2 µM; GI50 (ACHN renal): 5.9 µM; TGI (ACHN renal): 11.2 µM; GI50 (RXF 393 renal): 1.76 µM; TGI (RXF 393 renal): 7.23 µM; GI50 (HT29 colon): 0.942 µM; TGI (HT29 colon): 2.55 µM; GI50 (M14 melanoma): 0.838 µM; TGI (M14 melanoma): 1.85 µM; GI50 (HOP-92 NSCLC): 2.01 µM; TGI (HOP-92 NSCLC): 8.1 µM; GI50 (SNB-19 CNS): 6.06 µM; TGI (SNB-19 CNS): 11.5 µM; GI50 (EKVX NSCLC): 5.77 µM; TGI (EKVX NSCLC): 11.5 µM
